Source: ChEMBL document CHEMBL1155516, “Biochemical and structural analysis of the binding determinants of a vascular endothelial growth factor receptor peptidic antagonist” (J Med Chem, 2010)
Activity calls are given as the source filed them. No cut-off for these calls is given here. Where a SMILES comes first, the peptide text is derived from it. Bridges are numbered along the chain shown (N, C = ends).

Legend:
[1] = biological target: Vascular endothelial growth factor receptor 2 (Homo sapiens) (UniProt P35968); assay: Inhibition of VEGFR2 phosphorylation in VEGF165-stimulated HUVEC at 100 uM treated for 1 hr before VEGF165 challenge measured after 5 mins by Western blot analysis; type: cell-based
HUVEC [2] = details: Homo sapiens, 10 uM
[3] = biological target: Vascular endothelial growth factor receptor 2 (Homo sapiens) (UniProt P35968); assay: Inhibition of VEGFR2 phosphorylation in VEGF165-stimulated HUVEC treated for 1 hr before VEGF165 challenge measured after 5 mins by Western blot analysis; type: cell-based
[4] = biological target: Vascular endothelial growth factor receptor 2 (Homo sapiens) (UniProt P35968); assay: Inhibition of VEGFR2 phosphorylation in VEGF165-stimulated HUVEC at 10 uM treated for 1 hr before VEGF165 challenge measured after 5 mins by Western blot analysis; type: cell-based
[5] = biological target: Vascular endothelial growth factor receptor 2 (Homo sapiens) (UniProt P35968); assay: Inhibition of VEGFR2 phosphorylation in VEGF165-stimulated HUVEC at 33 uM treated for 1 hr before VEGF165 challenge measured after 5 mins by Western blot analysis; type: cell-based
[6] = biological target: Vascular endothelial growth factor receptor 2 (Homo sapiens) (UniProt P35968); assay: Inhibition of VEGFR2 phosphorylation in VEGF165-stimulated HUVEC at 3 uM treated for 1 hr before VEGF165 challenge measured after 5 mins by Western blot analysis
HUVEC [7] = details: Homo sapiens, 100 uM
Description: Inhibition of VEGFR in HUVEC assessed as inhibition of VEGF165-induced ERK1/2 phosphorylation at 100 uM treated for 1 hr before VEGF165 challenge measured after 15 mins by Western blot analysis

HUVEC [8] = details: Homo sapiens, 3 uM
Description: Inhibition of VEGFR in HUVEC assessed as inhibition of VEGF165-induced ERK1/2 phosphorylation at 3 uM treated for 1 hr before VEGF165 challenge measured after 15 mins by Western blot analysis

HUVEC [9] = details: Homo sapiens, 33 uM
Description: Inhibition of VEGFR in HUVEC assessed as inhibition of VEGF165-induced ERK1/2 phosphorylation at 33 uM treated for 1 hr before VEGF165 challenge measured after 15 mins by Western blot analysis

[10] = biological target: Vascular endothelial growth factor receptor 2 (Homo sapiens) (UniProt P35968); assay: Binding affinity to human recombinant VEGFR2 extracellular domain immobilized in CNBr-activated sepharose at 25 nmol after 5 mins by pull-down assay

Sequence of Vascular endothelial growth factor receptor 2 (Homo sapiens) (P35968 whole entry, the tested form may be a part): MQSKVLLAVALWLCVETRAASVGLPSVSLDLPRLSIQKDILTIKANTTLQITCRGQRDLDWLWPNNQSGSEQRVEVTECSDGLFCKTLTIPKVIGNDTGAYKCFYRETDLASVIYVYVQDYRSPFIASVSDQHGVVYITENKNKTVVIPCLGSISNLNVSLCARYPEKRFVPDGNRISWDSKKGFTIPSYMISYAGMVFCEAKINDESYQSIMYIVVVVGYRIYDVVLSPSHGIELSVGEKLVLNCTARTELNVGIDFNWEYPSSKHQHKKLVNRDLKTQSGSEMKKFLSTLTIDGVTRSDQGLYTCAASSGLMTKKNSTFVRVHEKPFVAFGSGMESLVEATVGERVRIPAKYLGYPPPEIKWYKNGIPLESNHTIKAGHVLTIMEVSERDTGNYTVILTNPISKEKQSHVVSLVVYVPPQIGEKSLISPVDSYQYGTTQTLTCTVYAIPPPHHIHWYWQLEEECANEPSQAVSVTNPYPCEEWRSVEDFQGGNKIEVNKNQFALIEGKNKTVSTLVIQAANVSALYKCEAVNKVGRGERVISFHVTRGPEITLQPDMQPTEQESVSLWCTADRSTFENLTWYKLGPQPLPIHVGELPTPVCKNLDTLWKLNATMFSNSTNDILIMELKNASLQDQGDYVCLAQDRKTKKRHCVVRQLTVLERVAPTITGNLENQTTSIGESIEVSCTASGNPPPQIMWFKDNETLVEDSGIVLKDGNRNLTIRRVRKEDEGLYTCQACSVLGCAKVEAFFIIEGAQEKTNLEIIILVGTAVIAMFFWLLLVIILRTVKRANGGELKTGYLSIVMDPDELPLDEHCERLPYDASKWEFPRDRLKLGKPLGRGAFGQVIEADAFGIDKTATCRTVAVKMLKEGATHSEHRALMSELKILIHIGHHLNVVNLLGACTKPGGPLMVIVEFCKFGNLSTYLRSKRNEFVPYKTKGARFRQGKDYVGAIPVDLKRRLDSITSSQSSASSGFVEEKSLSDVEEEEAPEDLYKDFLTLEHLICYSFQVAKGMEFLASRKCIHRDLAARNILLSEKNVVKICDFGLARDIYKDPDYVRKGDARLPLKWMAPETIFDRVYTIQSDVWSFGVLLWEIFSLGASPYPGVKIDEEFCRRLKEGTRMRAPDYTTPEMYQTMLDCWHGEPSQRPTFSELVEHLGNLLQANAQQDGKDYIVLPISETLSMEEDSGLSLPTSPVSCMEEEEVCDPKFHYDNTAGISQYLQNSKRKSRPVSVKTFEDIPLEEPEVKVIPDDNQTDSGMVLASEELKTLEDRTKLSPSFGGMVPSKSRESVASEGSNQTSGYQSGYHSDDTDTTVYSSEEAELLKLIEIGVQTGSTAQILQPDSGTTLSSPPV

SMILES	inhibition [1]	other results
CC(C)C[C@@H]1NC(=O)CNC(=O)[C@H](CCC(=O)O)NC(=O)[C@H](CC(=O)O)NC(=O)[C@H](Cc2ccc(O)cc2)NC(=O)[C@H](C)NC(=O)CC[C@@H](C(N)=O)NC(=O)[C@H](CCC(=O)O)NC1=O (AYDEGLEE-NH2; lactam N-8)	inactive	–
CC(C)C[C@@H]1NC(=O)CNC(=O)[C@H](CCC(=O)O)NC(=O)[C@H](CC(=O)O)NC(=O)[C@H](C)NC(=O)[C@H](Cc2ccc(O)cc2)NC(=O)CC[C@@H](C(N)=O)NC(=O)[C@H](CCC(=O)O)NC1=O (YADEGLEE-NH2; lactam N-8)	inactive	–
CC(C)C[C@@H]1NC(=O)CNC(=O)[C@H](CCC(=O)O)NC(=O)[C@H](CC(=O)O)NC(=O)[C@H](CCCCN)NC(=O)[C@H](Cc2ccc(O)cc2)NC(=O)CC[C@@H](C(N)=O)NC(=O)[C@H](CCC(=O)O)NC1=O (YKDEGLEE-NH2; lactam N-8)	Active	–
CC(C)C[C@@H]1NC(=O)CNC(=O)[C@H](C)NC(=O)[C@H](CC(=O)O)NC(=O)[C@H](Cc2ccc(O)cc2)NC(=O)[C@H](Cc2ccc(O)cc2)NC(=O)CC[C@@H](C(N)=O)NC(=O)[C@H](CCC(=O)O)NC1=O (YYDAGLEE-NH2; lactam N-8)	inactive	–
C[C@@H]1NC(=O)CNC(=O)[C@H](CCC(=O)O)NC(=O)[C@H](CC(=O)O)NC(=O)[C@H](Cc2ccc(O)cc2)NC(=O)[C@H](Cc2ccc(O)cc2)NC(=O)CC[C@@H](C(N)=O)NC(=O)[C@H](CCC(=O)O)NC1=O (YYDEGAEE-NH2; lactam N-8)	inactive	–
CC(C)C[C@@H]1NC(=O)CNC(=O)[C@H](CCC(=O)O)NC(=O)[C@H](CC(=O)O)NC(=O)[C@H](Cc2ccc(O)cc2)NC(=O)[C@H](Cc2ccc(O)cc2)NC(=O)CC[C@@H](C(N)=O)NC(=O)[C@H](C)NC1=O (YYDEGLAE-NH2; lactam N-8)	inactive	–
CC(C)C[C@@H]1NC(=O)CNC(=O)[C@H](CCC(=O)O)NC(=O)[C@H](CC(=O)O)NC(=O)[C@H](Cc2ccc(O)cc2)NC(=O)[C@H](Cc2ccc(O)cc2)NC(=O)CC[C@@H](C(N)=O)NC(=O)[C@H](CCC(=O)O)NC1=O (YYDEGLEE-NH2; lactam N-8)	Active	inhibition (HUVEC [2]): Active; inhibition [3]: Dose-dependent effect; inhibition [4]: Active; inhibition [5]: Active; inhibition [6]: inactive; inhibition (HUVEC [7]): Active; inhibition (HUVEC [8]): inactive; inhibition (HUVEC [9]): Active
CC(C)C[C@@H]1NC(=O)[C@H](CCCCN)NC(=O)[C@H](CCC(=O)O)NC(=O)[C@H](CC(=O)O)NC(=O)[C@H](Cc2ccc(O)cc2)NC(=O)[C@H](Cc2ccc(O)cc2)NC(=O)CC[C@@H](C(N)=O)NC(=O)[C@H](CCC(=O)O)NC1=O (YYDEKLEE-NH2; lactam N-8)	Active	–
CC(C)C[C@@H]1NC(=O)CNC(=O)[C@H](CCC(=O)O)NC(=O)[C@H](CCCCN)NC(=O)[C@H](Cc2ccc(O)cc2)NC(=O)[C@H](Cc2ccc(O)cc2)NC(=O)CC[C@@H](C(N)=O)NC(=O)[C@H](CCC(=O)O)NC1=O (YYKEGLEE-NH2; lactam N-8)	Active	Activity [10]: inactive
